Assay results as given in article PMC3221659, “Targeting of Mitochondria-Endoplasmic Reticulum by Fluorescent Macrocyclic Compounds” (PLoS ONE, 2011).

How the values were obtained:
[1] = tested on: human breast cancer cells (MCF-7); assay: MTT cytotoxicity assay, MCF-7; format: cell-based; settings: MCF-7 cells; for IC50: Homo sapiens, MCF7, MTT, 48 h
Description: (§1) One of the key issues to consider a probe suitable for living cells use is its cellular toxicity. In this context, the cytotoxicity of the five synthesised macrocyclic compounds is assessed by a 3-(4,5-dimethylthiazol-2-yl)-2,5-diphenyltetrazolium bromide (MTT) assay. The cytotoxicity of the starting material 1,10-phenanthroline-2,9-dicarbaldehyde is measured by MTT assay for comparison. In this quantitative colorimetric assay, the amount of MTT reduced by cells to its formazan derivative is quantified spectroscopically at 570 nm and is considered equivalent to the number of viable cells. The cytotoxicity of the referred compounds is evaluated using human breast cancer cells (MCF-7), non-cancerous human dermal fibroblasts (NHDF) and human adult dermal skin fibroblasts (designated P14) obtained from the breast biopsy specimen of a person diagnosed with breast cancer. All cells have been exposed to the six different compounds in five concentrations ranging from 10 nM to 100 µM during a period of exposition of 48 h.
(§2) Cell viability was studied quantifying the extent of the reduction of 3-(4,5-dimethylthiazol-2-yl)-2,5-diphenyltetrazolium bromide (MTT) according to a previously described procedure. Briefly, cells were seeded in 48-well plates (0.5×10^4 cells/well) in the culture medium containing FBS and after 48 h they were treated with five concentrations (10 nM and 100 nM, 1 µM, 10 µM and 100 µM) of the different compounds for 48 h, with untreated cells serving as control. At the end of incubation the media in wells were removed and replaced with fresh media and MTT solution and incubated at 37°C for 4 h. Thereafter, media-containing MTT were removed and formazan crystals were dissolved and absorbance was recorded in Biorad 550 microplate reader at 570 nm. The extent of cell death was expressed as the percentage of cell viability in comparison with control cells.
(§3) All experiments were performed in triplicate. The IC50 values were calculated from the obtained dose-response curve by sigmoid fitting. Graphical results of citotoxicity were expressed as the average values ± SEM (standard error of mean). Comparison among multiple groups was analyzed by using a one-way ANOVA followed by Dunnet's post hoc tests to determine significant differences among the means. Difference between groups was considered statistically significant at P<0.05.

[2] = tested on: non-cancerous human dermal fibroblasts (NHDF); assay: MTT cytotoxicity assay, NHDF; format: cell-based; settings: NHDF cells, 48 h
Description: as §1, with “All cells have been exposed to the six different compounds in five concentrations ranging from 10 nM to 100 µM during a period of exposition of 48 h.” left out
Cell viability was studied quantifying the extent of the reduction of 3-(4,5-dimethylthiazol-2-yl)-2,5-diphenyltetrazolium bromide (MTT) according to a previously described procedure. […] Thereafter, media-containing MTT were removed and formazan crystals were dissolved and absorbance was recorded in Biorad 550 microplate reader at 570 nm. The extent of cell death was expressed as the percentage of cell viability in comparison with control cells. […]

[3] = tested on: human adult dermal skin fibroblasts (P14); assay: MTT cytotoxicity assay, P14; format: cell-based; settings: P14 cells, 48 h; for IC50: Homo sapiens, Skin fibroblast; for reduction in cell viability (approximately 50%): 0.1 µM
Description: as §1, §2, §3

MCF-7 cells = assay: Mitochondrial membrane potential by flow cytometry (CMXRos / MitoTracker Green), MCF-7; format: cell-based, human; settings: 10 µM, 48 h
Description: (§4) In order to study the effects of the compounds in mitochondrial membrane potential (MMP) of MCF-7 and NHDF cells, flow cytometry assay was employed to monitor any fluorescence changes in MitoTracker Green™ and red fluorescence of chloromethyl-X-rosamine (CMXRos), treatment with the uncoupler 2,4-dinitrophenol (2,4-DNP) to collapse the MMP. While MitoTracker Green™ staining was relatively unaffected by changes in MMP, the CMXRos staining of mitochondria is sensitive to MMP [30]. Also, laser scanning confocal microscopy was employed to analyze changes in mitochondrial localization by treated cells with uncoupler 2,4-DNP and staining with MitoTracker Green™ and compounds.
(§5) The assessment of mitochondrial membrane potential was determined as described previously. Briefly, the cells were incubated with 200 nM of MitoTracker Green™ and 200 nM of Mitotracker Red (CMXRos) for 30 min prior to harvesting. The 2,4-dinitrophenol (DNP) was used as a mitochondrial uncoupler (300 µM, 2 h). The cells were treated with compounds concentration 10 µM for 48 h. The relative mitochondrial membrane potential was analyzed by flow cytometry by measuring the mean intensity of FL1 (green) and FL4 (red) channels. The FL4/FL1 ratio intensities of compounds treated and positive control (DNP) were compared and indicated if the compounds change the mitochondrial membrane potential of the cells.

[4] = tested on: MCF-7, NHDF and P14 cells; assay: Fluorescence and confocal microscopy: uptake and sub-cellular localization; format: cell-based, human; settings: 10 nM and 100 µM over 48 h
Description: The timescale of trafficking of these compounds and their sub-cellular localization have been subsequently examined in MCF-7, NHDF and P14 cells using fluorescence microscopy. The cells are mounting on 0.1 mm thick glass cover slips by withdrawal of the respectively growth medium.
The incubation times to test the ability compounds to penetrate into cells varied from 5 min to 48 h, and concentrations onto the cells were 10 nM and 100 µM by dissolving in appropriate medium. […] By analyzing each image recorded, all the compounds in all cells rapidly crossed the cell membrane (5 min) and induced a slight stain in the first minutes of incubation, depending on the type of cells. However, for incubation times longer than 30 min, it seems that this difference in the stained disappeared, thus appearing that the compounds were localized into an organelle of the cytoplasm.
Besides, the subcellular localization of the compounds has been confirmed by co-staining with MitoTracker™ (25 nM, 45 min of incubation) and ER-Tracker™ (100 nM, 30 min of incubation) probes in MCF-7, NHDF and P14 cells, with compound concentrations of 10 nM and 100 nM and for incubation times of 1 h.
After growth in the glass bottom culture dishes coated with collagen (1×10^4 cells/dish), the cells were incubated in the dark at 37°C with 10 nM of all the compounds and analyzed from 5 min to 48 h. […]

NHDF cells [5] = assay: Annexin V-FITC / PI flow cytometry, NHDF; format: cell-based, human; settings: 10 µM, 48 h
Description: For this purpose, the fluorescein isothiocyanate (FITC)-conjugated annexin V - PI (propidium iodide) flow cytometry assay is employed, allowing the identification of apoptosis and necrosis. Thus, MCF-7 and NHDF cells are treated with two concentrations (10 nM and 10 µM) of each compound for 48 h. These concentrations are […], except for [32]phen2N4 on MCF-7 cells.
To detect apoptosis, cells were stained with propidium iodide (PI) and fluorescein isothiocyanate (FITC)-conjugated annexin V using an Annexin V-FITC Apoptosis Detection Kit (BD PharmingenTM). Briefly, cells were seeded in […] flasks in the culture medium containing FBS and after reaching approximated 90% confluence they were treated with two concentrations (10 nM and 10 µM) of each compound for 48 h, with untreated cells serving as control. At the end of incubation, cells were harvested by trypsin-EDTA treatment, washed twice with cold PBS and resuspended with 1× binding buffer (1 mL). […] After the addition of […] of 1× binding buffer, stained cells were subjected to fluorescence-activated cell sorter (FACS) analysis using a FACSCalibur flow cytometer. The FITC fluorescence was measured between 515 and 545 nm and the PI fluorescence between 564 and 606 nm. […]

NHDF cells [6] = assay: Mitochondrial membrane potential by flow cytometry (CMXRos / MitoTracker Green), NHDF; format: cell-based, human; settings: 10 µM, 48 h
Description: as §4, §5

Row | Compound | IC50 [1] [µM] | IC50 [2] [µM] | IC50 [3] [µM] | effect on mitochondrial membrane potential (red fluorescence, FL4/FL1) versus positive control 2,4-DNP (MCF-7 cells) | cytotoxicity ([1]; 10 nM to 10 µM) | signs of cytotoxicity in microscopy [4] | percentage of late apoptotic cells (NHDF cells [5]) | reduction in cell viability (approximately 50%) [3] | effect on mitochondrial membrane potential (FL4/FL1 ratio) versus positive control 2,4-DNP (NHDF cells [6])
1 | c1cc2ccc3ccc4nc3c2nc1CNCCNCCNCc1ccc2ccc3ccc(nc3c2n1)CNCCNCCNC4 [[30]phen2N6] | > 100 | – | – | – | – | – | – | – | –
2 | CN1CCCNCc2cccc(n2)CNCCCN(C)CCCNCc2cccc(n2)CNCCC1 [Me2[28]py2N6] | > 100 | 69.7 ± 3.02 | 36.8 ± 4.68 | decrease of red fluorescence | – | – | – | – | –
3 | c1cc2ccc3ccc4nc3c2nc1CNCCCCCCNCc1ccc2ccc3ccc(nc3c2n1)CNCCCCCCNC4 [[32]phen2N4] | < 0.01 | 78.9 ± 2.82 | 85.3 ± 1.79 | – | highly cytotoxic | no relevant signs of cytotoxicity | – | – | –
4 | O=Cc1ccc2ccc3ccc(C=O)nc3c2n1 [1,10-phen, 1,10-phenanthroline-2,9-dicarbaldehyde, reference compound] | > 100 | – | – | – | – | – | about 20% | – | –
5 | c1cc2ccc3ccc4nc3c2nc1CN1CCCCCCN(C4)Cc2ccc3ccc4ccc(nc4c3n2)CN2CCCCCCN(Cc3ccc4ccc5ccc(nc5c4n3)C2)Cc2ccc3ccc4ccc(nc4c3n2)C1 [cryptphen] | > 100 | – | – | – | – | – | – | not observed | modify the MMP
6 | c1cc2ccc3ccc4nc3c2nc1CNCCCCCCNC4 [[16]phenN2] | > 100 | – | – | decrease of red fluorescence | – | – | about 20% | not observed | modify the MMP
